The record followed here is patent US20100130476A1, “COMPOUNDS THAT INDUCE PANCREATIC BETA-CELL EXPANSION” (The Scripps Research Institute, priority 2008, published 2010).

In one test the test system is HIT-T15 β cells. Kind of test: HIT-T15 β-cell proliferation (BrdU incorporation assay). The test is classed as cell-based, Hamster. As to the method:
(§1) R7T1 β-cells are expanded in growth medium (DMEM with 15% horse serum and 2.5% FBS) in the presence of 10 μg/ml doxycycline. (3TC-tet cells are expanded in growth medium (DMEM with 15% horse serum and 2.5% FBS) in the absence of 10 μg/ml doxycycline. Hamster HIT-T15 β-cells are grown in F12 medium with 15% horse serum and 2.5% FBS. MIN6 cells are cultured in DMEM with 15% FBS. HEK293 cells are grown according to instructions from ATCC (http://www.atcc.org/).
(Uptake of a labelled nucleoside into DNA is a usual measure of proliferation.)

The subject of test [1] is growth-arrested R7T1 β cells. As to the kind of experiment: R7T1 β-cell proliferation, CellTiter Glo assay (high-throughput screen and follow-up). The test is classed as cell-based, mouse. As to the method: as §1
R7T1 β-cells are expanded in large quantities in growth medium in the presence of 10 μg/ml doxycycline and then are growth arrested by removal of doxycycline for one week. For the primary screen, growth-arrested cells are plated onto 384- or 1536-well plates in growth medium without doxycycline at a density of 4000 cells/well in 384-well plate or 1000 cells/well in 1536-well plate in an automated high-throughput screening platform (designated as Day 0). […] For data analysis, the median of a plate is calculated and the activity of each well is the signal/median of the plate. A signal in any well over 1.5 of the median is regarded as a primary hit. For the reconfirmation screen, growth-arrested R7T1 cells are plated onto 384-well plates and screened against all primary hits in quadruplicate. To eliminate tetracycline mimetics among all reconfirmed primary hits, βTC-tet cells are plated onto 384-well plates at a density of 2000 cells/well in growth medium in the presence of 10 μg/ml doxycycline, and 1.25 μM compound is added after overnight incubation and refreshed 4 days later. The effects on β-cell replication are then determined at Day 8 using the CellTiter Glo assay system. Any compound that increases the readings more than 1.5 fold is regarded as a hit.
SV40 T antigen (TAg) oncoprotein under the control of the Tet-On system was used to immortalize mouse β cells so that these engineered β cells proliferate when TAg is induced in the presence of tetracycline (Tet), but undergo growth arrest upon withdrawal of Tet (see, Efrat S, et al., Proc. Natl. Acad. Sci. USA 92:3576-3580 (1995); Fleischer N, et al, Diabetes 47:1419-1425 (1998); and Milo-Landesman D, et al., Cell Transplant. 10:645-650 (2001)). Although not a true mimic of in vivo quiescent β cells, this system should allow us to identify small molecules that are able to induce reentry into cell cycle and proliferation of growth-arrested cells. Indeed, these engineered cells express high levels of β-cell signature markers, including insulin 1, insulin 2, and Pdx1, and are able to secrete insulin and restore and maintain euglycemia in STZ-treated diabetic mice when induced to growth arrest and transplanted (see, Efrat S, et al., supra; and Milo-Landesman D, et al., supra). A total of ≈850,000 compounds were screened with an automated high-throughput screening platform for their ability to induce the proliferation of growth-arrested β cells in either a 384- or 1,536-well plate format. In the primary screen, proliferation was assayed by using a luminescent assay measuring intracellular ATP content, which is directly proportional to viable cell number (see, Materials and Methods). To rule out any possible Tet mimetics that induce the proliferation of β cells through the induction of SV40 TAg expression, the Tet-Off immortalized β-cell line βTC-Tet was used for a counterscreen.
A general note: In ATP-based viability assays light output follows the ATP content of the culture.

Test [2] relates to Wnt reporter whose β-catenin/TCF binding sites are mutated. Kind of test: Mutated Wnt reporter. It counts as cell-based. Conditions: data not shown.
The subject of the next test is β-catenin. As to the kind of experiment: Nuclear β-catenin translocation in HEK293 cells. The test is classed as cell-based. Conditions: 10 μM, versus DMSO, listed as 1a. As to the method: (§2) (A) Chemical structures of 5-thiophene pyrimidines. […] Relative luminescence unit (RLU) was measured by CellTiter-Glo assay after 7-day incubation of growth-arrested R7T1 β cells with 1a, which was added at day 0 and refreshed at day 4; experiments were performed in quadruplicate. All data in this paper are presented as mean±SD, unless otherwise specified. (C) Dose-dependent effects of 1a on the activation of Super (8×) TOPFlash reporter. HEK293 cells transfected with Super (8×) TOPFlash reporter were treated with 1a at the indicated concentrations 24 h after transfection. Luciferase activity was measured 48 h after compound treatment. (D and E) The proliferative effect of 1a on rat primary β cells. (D) After incubation for 72 h with 2 μM 1a, replicating β cells were identified by double-immunofluorescence staining by using anti-C-peptide antibody to mark β cells (green) and antibody against Ki-67, a proliferation marker (red). Nuclear DNA was stained with DAPI (blue). (Scale bar, 10 μm.) (E) The percentage of Ki-67-positive cells of all C-peptide-positive cells, which corresponds to the fraction of replicating β cells. The number of proliferating primary β cells increased after incubation for 72 h in the presence of 2 μM 1a compared with DMSO control: 1a at 2 μM increases the replicating β cells ≈2-fold. […] CellTiter-Glo activity was measured 7 days after compound treatment.

The next test concerns rat primary β cells. Kind of test: Primary β-cell proliferation assay, rat (C-peptide/Ki-67 double staining). The test is classed as cell-based. As to the method:
Islets are isolated by the standard Liberase digestion method from the pancreata of adult Sprague-Dawley rats (200-250 g) (Liberase III; Roche Applied Science) and cultured in RPMI medium with 10% FBS. Briefly, 6 ml of ice-cold Liberase solution (Roche Applied Science) is injected into the pancreas via the common bile duct. After dissection, the pancreas is incubated for 35 minutes at 37° C. and then further dissociated by repeated pipetting using a 10-ml pipette. Islets are purified by Histopaque-1.077 (Sigma) density gradient centrifugation and are manually picked using a stereomicroscope. […] Human islets are obtained through the Juvenile Diabetes Research Foundation Islet Distribution Program by Islet Cell Resource Center in Minnesota, USA. The purity and viability of human islets are reported to be 30-70% and 50-70%, respectively. Human islets are cultured in CMRL medium containing 10% FBS.
Islets or single suspension cells are fixed with 4% formalin solution (Sigma) and stained by standard immuno-fluorescence techniques for C-peptide (anti-human C-peptide antibody from Raybiotech, Inc., and anti-rat C-peptide antibody from Linco, Inc.) and Ki-67 (anti-Ki-67 antibody from Abcam), a marker of proliferating cells. Nuclear DNA is stained with DAPI (Molecular Probes). At least 30,000 C-peptide positive cells are counted in each experiment, performed in triplicate. The images are taken on a Nikon Eclipse TE300 microscope with 200× magnification. Proliferating C-peptide/Ki-67 double positive β-cells are counted manually.

The target of another test is 65 kinases. As to the kind of experiment: Kinase profiling. It counts as biochemical. Conditions: 5 μM; 65 kinases profiled.
Test [3] has as its system Super (8×) TOPFlash reporter. As to the kind of experiment: Super (8×) TOPFlash Wnt reporter in HEK293 cells. It counts as cell-based. As to the method:
as §2, with “≈2-fold. (F) Compound 1a stimulates the translocation of β-catenin into the nucleus. Nuclear β-catenin accumulation (green arrows) was increased in 10 μM 1a-treated HEK293 cells; in DMSO-treated control cells, β-catenin staining is weak and appears to concentrate at the cell surface.” for “≈2-fold.”

The test system of another test is MIN6 cells. Kind of test: MIN6 β-cell proliferation (BrdU incorporation assay). It counts as cell-based. As to the method: as §1
The target in a further test is GSK3-β (Homo sapiens, UniProt P49841). Kind of test: GSK3-β inhibition. Conditions: preliminary investigation. The test is classed as biochemical.
GSK3-β, sequence (P49841 whole entry, species assumed): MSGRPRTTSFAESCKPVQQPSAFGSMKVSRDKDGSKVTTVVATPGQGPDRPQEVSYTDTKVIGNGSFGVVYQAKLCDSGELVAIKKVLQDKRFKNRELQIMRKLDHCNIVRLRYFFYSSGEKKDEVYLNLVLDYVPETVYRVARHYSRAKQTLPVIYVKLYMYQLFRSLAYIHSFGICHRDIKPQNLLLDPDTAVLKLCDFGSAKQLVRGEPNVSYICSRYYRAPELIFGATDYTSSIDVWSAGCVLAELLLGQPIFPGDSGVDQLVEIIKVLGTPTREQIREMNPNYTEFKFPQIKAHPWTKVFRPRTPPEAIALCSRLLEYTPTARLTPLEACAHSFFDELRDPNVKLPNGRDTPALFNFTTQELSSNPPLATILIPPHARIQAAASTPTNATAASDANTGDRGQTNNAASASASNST

On to `CN1CCN(C(=O)c2ccc(Nc3nccc(-c4cccs4)n3)cc2Cl)CC1` [Example 1, (2-chloro-4-(4-(thiophen-2-yl)pyrimidin-2-ylamino)phenyl)(4-methylpiperazin-1-yl)methanone], for which the “proliferation of HIT-T15 β cells (in words)” value in the test on HIT-T15 β cells was “promote the proliferation”. Besides, the EC50 – broadly, the concentration at which the effect is half-maximal – in test [1] (Mus musculus, 168 h, CellTiter-Glo after 7-day incubation, read-out: EC50 of replication of growth-arrested R7T1 β cells) is roughly 1100 nM; in [3] (Homo sapiens, HEK293 cells, luciferase 48 h after compound treatment, read-out: EC50 of induction of Super (8×) TOPFlash reporter), roughly 1250 nM. In [1] (high-throughput screen, CellTiter Glo at Day 8, screen concentration 1.25 μM), the “expansion of the pancreatic β-cell population” value was determined as 2.5 fold. The “activity on mutated Wnt reporter” value in test [2] is listed as “no activity”. Moreover, the “nuclear β-catenin accumulation” value with β-catenin was “Increased nuclear β-catenin accumulation”. The “increase in replicating primary rat β cells (Ki-67/C-peptide)” value with rat primary β cells (2 μM, 72 h, compared with DMSO) is “≈ 2 fold”. For the same molecule, the “increase in rat C-peptide/Ki-67 double positive β-cells” value in the test on rat primary β cells (72 hours (3 days), concentration not given) came to 2 fold. Besides, on 65 kinases, the “kinases profiled that were inhibited by >75%” value is 7 of 65. Further, in test [3] (10 μM), the “activation of the Wnt reporter compared with DMSO” value was 15 fold. The “proliferation of MIN6 β cells (in words)” value in the test with MIN6 cells is reported as “promote the proliferation”. Further, the IC50 – broadly, the midpoint of a concentration-inhibition curve – at GSK3-β was found to be 64 nM.
